The results in this text go back to ChEMBL document CHEMBL1141896, “Synthesis and structure-activity relationships of piperidinylpyrrolopyridine derivatives as potent and selective H1 antagonists” (Bioorg Med Chem Lett, 2005).

Bounds are passed on as bounds.

The target in one assay is Histamine H1 receptor (Cavia porcellus, UniProt P31389). The experiment in a line: Inhibitory concentration against histamine-H1 receptor.
Assay [1] has as its target Histamine H1 receptor (Mus musculus) (UniProt P70174). The experiment in a line: Ex vivo effective binding dose against histamine-H1 receptor (n = 3).
For assay [2], the species on record is Rattus norvegicus. The experiment in a line: Effective dose against Histamine-induced skin vascular permeability model in rat after 4 hr (n = 5). Type of assay: functional.
The species entered for assay [3] is Rattus norvegicus. The experiment in a line: Effective dose against Histamine-induced skin vascular permeability model in rat after 8 hr (n = 5). Type of assay: functional.
Assay [4] deals with Serotonin 2 (5-HT2) receptor (Homo sapiens, UniProt P41595+P28223+P28335). The experiment in a line: Inhibitory concentration against 5-hydroxytryptamine 2 receptor. The format is protein assay.
The target in assay [5] is T1, Adrenergic receptor alpha-1 (Rattus norvegicus, UniProt P15823+P23944+P43140).
T1 sequence (P15823 whole entry): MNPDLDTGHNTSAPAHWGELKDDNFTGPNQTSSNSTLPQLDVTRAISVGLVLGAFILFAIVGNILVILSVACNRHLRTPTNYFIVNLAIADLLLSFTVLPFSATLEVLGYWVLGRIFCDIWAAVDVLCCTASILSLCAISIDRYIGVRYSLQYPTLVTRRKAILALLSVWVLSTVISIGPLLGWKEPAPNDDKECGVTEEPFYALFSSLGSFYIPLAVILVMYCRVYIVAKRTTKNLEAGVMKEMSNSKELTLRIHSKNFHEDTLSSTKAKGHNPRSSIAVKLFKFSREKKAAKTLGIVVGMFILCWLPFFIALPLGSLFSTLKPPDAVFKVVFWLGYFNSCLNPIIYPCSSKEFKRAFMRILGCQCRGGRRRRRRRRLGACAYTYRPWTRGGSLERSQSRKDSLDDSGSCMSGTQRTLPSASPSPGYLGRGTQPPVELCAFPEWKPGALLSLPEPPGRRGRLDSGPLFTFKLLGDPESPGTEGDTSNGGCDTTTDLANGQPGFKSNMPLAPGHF
T1 sequence (P23944 whole entry): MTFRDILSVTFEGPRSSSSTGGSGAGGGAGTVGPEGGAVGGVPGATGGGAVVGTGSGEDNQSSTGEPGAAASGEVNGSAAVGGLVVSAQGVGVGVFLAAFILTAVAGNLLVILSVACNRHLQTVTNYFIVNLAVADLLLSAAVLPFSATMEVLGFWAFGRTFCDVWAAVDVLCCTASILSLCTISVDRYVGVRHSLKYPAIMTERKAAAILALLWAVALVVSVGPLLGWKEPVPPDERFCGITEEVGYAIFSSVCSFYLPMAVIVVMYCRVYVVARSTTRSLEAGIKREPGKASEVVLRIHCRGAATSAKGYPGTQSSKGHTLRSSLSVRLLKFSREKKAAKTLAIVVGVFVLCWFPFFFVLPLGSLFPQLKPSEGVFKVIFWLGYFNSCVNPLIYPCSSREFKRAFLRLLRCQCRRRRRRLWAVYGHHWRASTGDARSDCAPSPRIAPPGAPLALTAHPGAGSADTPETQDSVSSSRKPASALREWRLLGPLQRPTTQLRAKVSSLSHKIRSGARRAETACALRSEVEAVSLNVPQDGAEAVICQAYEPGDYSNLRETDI
T1 sequence (P43140 whole entry): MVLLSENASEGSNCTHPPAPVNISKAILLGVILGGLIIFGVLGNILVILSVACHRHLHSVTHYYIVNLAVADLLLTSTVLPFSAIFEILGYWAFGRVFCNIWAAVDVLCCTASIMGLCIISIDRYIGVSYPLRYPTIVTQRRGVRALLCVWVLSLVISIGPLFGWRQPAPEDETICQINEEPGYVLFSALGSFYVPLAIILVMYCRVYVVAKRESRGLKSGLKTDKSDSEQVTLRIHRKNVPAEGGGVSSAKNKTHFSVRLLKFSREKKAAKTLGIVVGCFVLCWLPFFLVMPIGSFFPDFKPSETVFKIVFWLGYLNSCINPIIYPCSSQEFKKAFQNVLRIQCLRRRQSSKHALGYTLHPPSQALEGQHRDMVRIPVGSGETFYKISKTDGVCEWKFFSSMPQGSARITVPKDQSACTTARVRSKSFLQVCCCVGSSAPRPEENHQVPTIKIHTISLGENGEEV
The experiment in a line: Binding affinity towards Alpha-1 adrenergic receptor in rat brain using [3H]prazosin as radioligand. Type of assay: tissue-based.

The subject of assay [6] is Rattus norvegicus. The experiment in a line: Inhibition of Histamine-induced skin vascular permeability model in rat after 4 hr at 1 mg/Kg (n = 5). Type of assay: functional.

Sequence of Histamine H1 receptor (P31389 whole entry): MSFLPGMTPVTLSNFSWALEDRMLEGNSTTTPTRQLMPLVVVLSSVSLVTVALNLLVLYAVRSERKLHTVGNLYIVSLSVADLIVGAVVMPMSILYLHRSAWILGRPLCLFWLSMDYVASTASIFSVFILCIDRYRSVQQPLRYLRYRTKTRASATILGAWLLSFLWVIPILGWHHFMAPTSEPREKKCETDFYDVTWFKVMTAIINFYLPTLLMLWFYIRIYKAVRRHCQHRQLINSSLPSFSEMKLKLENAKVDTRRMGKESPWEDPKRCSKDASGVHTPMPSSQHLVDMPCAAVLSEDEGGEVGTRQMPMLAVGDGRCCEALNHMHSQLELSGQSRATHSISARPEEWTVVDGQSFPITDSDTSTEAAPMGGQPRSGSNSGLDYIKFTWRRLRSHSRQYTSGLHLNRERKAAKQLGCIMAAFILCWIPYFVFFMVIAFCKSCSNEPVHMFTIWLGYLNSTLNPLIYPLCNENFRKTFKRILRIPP
Sequence of Histamine H1 receptor (Mus musculus) (P70174 whole entry, looked up): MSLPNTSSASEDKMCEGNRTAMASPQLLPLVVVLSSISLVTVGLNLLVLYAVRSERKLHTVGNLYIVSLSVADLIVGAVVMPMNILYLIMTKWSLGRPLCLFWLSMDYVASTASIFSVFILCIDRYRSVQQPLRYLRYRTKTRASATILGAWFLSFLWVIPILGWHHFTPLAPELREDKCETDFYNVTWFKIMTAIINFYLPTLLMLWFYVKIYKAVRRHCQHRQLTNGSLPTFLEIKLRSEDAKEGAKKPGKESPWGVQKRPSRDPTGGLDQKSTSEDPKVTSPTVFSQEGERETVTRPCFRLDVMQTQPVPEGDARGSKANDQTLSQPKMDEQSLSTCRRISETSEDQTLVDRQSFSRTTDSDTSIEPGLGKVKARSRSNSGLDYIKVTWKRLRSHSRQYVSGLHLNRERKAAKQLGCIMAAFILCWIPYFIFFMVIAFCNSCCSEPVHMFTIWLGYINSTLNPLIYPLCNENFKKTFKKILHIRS

One may read the IC50 as the midpoint of a concentration-inhibition curve. By ED50 is commonly meant the dose at which the effect has come halfway, by size or by number of responders. A higher ED50 goes with weaker potency. For the molecule `COc1ccc(CN2CCC(c3cn(Cc4ccc(Cl)s4)c4ccccc34)CC2)cc1C(=O)O`, the IC50 at Histamine H1 receptor is 0.365 µM; in assay [4] it was 10 µM; in assay [5] it was greater than 10 µM. The median effective dose (ED50) was found to be 57 mg/kg in assay [1], 0.5 mg/kg in the assay listed under Rattus norvegicus [2] and 0.7 mg/kg in the assay filed under Rattus norvegicus [3].
Turning to `CCOCCn1cc(C2CCN(Cc3cccc(C(=O)O)c3)CC2)c2ccccc21`, the results for the IC50 (at Histamine H1 receptor; in assay [4]; in assay [5]) were 0.403 µM, 4.95 µM and greater than 10 µM, respectively. Also, the ED50 in assay [1] was found to be 16 mg/kg; in the assay listed under Rattus norvegicus [2] it was 0.07 mg/kg; in the assay filed under Rattus norvegicus [3], 0.45 mg/kg.
For the molecule `CCCCn1cc(C2CCN(Cc3ccc(OC)c(C(=O)O)c3)CC2)c2ccccc21`, the figures for the half-maximal inhibitory concentration (IC50) (against Histamine H1 receptor; in assay [4]; in assay [5]) were 0.475 µM, greater than 10 µM and greater than 10 µM, respectively. For the same molecule, the ED50 in assay [1] was determined as 69 mg/kg; in the assay filed under Rattus norvegicus [2], 0.08 mg/kg; in the assay filed under Rattus norvegicus [3], 0.13 mg/kg.
For `O=C(O)c1cccc(CN2CCC(c3cn(Cc4ccoc4)c4ccccc34)CC2)c1`, the IC50 is 0.56 µM against Histamine H1 receptor, 10 µM in assay [4] and greater than 10 µM in assay [5]. Besides, the 50% effective dose (ED50) in the assay filed under Rattus norvegicus [2] is 1 mg/kg.
One may read the inhibition in vivo as how much of the control response was suppressed. Higher therefore signals a response far below the control. Take `O=C(O)c1cccc(CN2CCC(c3cn(Cc4ccc(Cl)s4)c4ccccc34)CC2)c1`: the concentration for half-maximal inhibition (IC50) is 0.33 µM against Histamine H1 receptor, greater than 10 µM in assay [4] and greater than 10 µM in assay [5]. Besides, the inhibition in vivo at 1 mg/kg in the assay with Rattus norvegicus [6] worked out at 7%.
Take `COc1ccc(CN2CCC(c3cn(Cc4ccoc4)c4ccccc34)CC2)cc1C(=O)O`: the 50% inhibitory concentration (IC50) is 0.205 µM against Histamine H1 receptor, 10 µM in assay [4] and greater than 10 µM in assay [5]. The ED50 in assay [1] was 15 mg/kg; in the assay filed under Rattus norvegicus [2], 0.2 mg/kg; in the assay listed under Rattus norvegicus [3], 0.2 mg/kg.
`CCCCn1cc(C2CCN(Cc3cccc(C(=O)O)c3)CC2)c2ccccc21`: the IC50 against Histamine H1 receptor is 0.275 µM; in assay [4], greater than 10 µM; in assay [5], greater than 10 µM. In the assay listed under Rattus norvegicus [2], this molecule gave an ED50 of 1 mg/kg.
`CCOCCn1cc(C2CCN(Cc3ccc(OC)c(C(=O)O)c3)CC2)c2ccccc21`: the figures for the IC50 (at Histamine H1 receptor; in assay [4]; in assay [5]) were 0.69 µM, 10 µM and greater than 10 µM, respectively. The results for the 50% effective dose (ED50) (in assay [1]; in the assay listed under Rattus norvegicus [2]) were 5.4 mg/kg and 0.05 mg/kg, respectively.
As for `CCOCCn1cc(C2CCN(CCOc3ccccc3C(=O)O)CC2)c2ccccc21`, the IC50 is 0.19 µM at Histamine H1 receptor, greater than 10 µM in assay [4] and greater than 10 µM in assay [5]. In addition, the ED50 was determined as 34 mg/kg in assay [1], 0.08 mg/kg in the assay listed under Rattus norvegicus [2] and 0.02 mg/kg in the assay filed under Rattus norvegicus [3].
As for `CCOCCn1cc(C2CCN(CCOc3ccccc3C=O)CC2)c2ccccc21`, the half-inhibitory concentration (IC50) against Histamine H1 receptor came to 0.086 µM; in assay [4] it was 3.272 µM; in assay [5], 10 µM. Further, the ED50 in assay [1] amounted to 8 mg/kg; in the assay listed under Rattus norvegicus [2] it was 0.1 mg/kg; in the assay listed under Rattus norvegicus [3], 0.22 mg/kg.
